From patent US9815839B2, “N-(1-(substituted-phenyl)ethyl)-9H-purin-6-amines as PI3K inhibitors” (Incyte Corporation, priority 2010, dated 2017)
Structures can show the parent of a compound that is named as a salt.

Experiments:
PI3Kδ (p110δ/p85α) = molecular target: T1, PI3Kδ (p110δ/p85α) (Homo sapiens, UniProt O00329); assay: PI3Kδ scintillation proximity assay; assay type: biochemical; details: 20 μM ATP, 4 nM PI3Kδ
T1 construct: purchased Millipore (Bedford, Mass.)
Summary of the method: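 p110δ/p85α (4 nM) phosphorylated 20 μM PIP2 with 20 μM ATP plus [γ-33P]ATP in 20 mM MOPS pH 6.7, 10 mM MgCl2, 5 mM DTT, 0.03% CHAPS, 0.5% DMSO, 210 min at room temperature. EDTA quench, WGA SPA bead capture, scintillation counting; IC50 from log-concentration fit.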

[1] = test system: Pfeiffer cell line (diffuse large B cell lymphoma); assay: Pfeiffer cell proliferation assay; assay type: cell-based; details: Homo sapiens, Pfeiffer, Pfeiffer cells, 3-4 days plus 12 hours [3H]-thymidine incorporation
Summary of the method: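 Pfeiffer DLBCL cells grown in RPMI/10% FBS at 2×10^3 cells/well in ultra-low-binding plates with a range of compound concentrations for 3-4 days. [3H]-thymidine (1 μCi/well) was then added for 12 h more. Incorporation was read by filtration and scintillation counting.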

T1 sequence (O00329 whole entry, species assumed): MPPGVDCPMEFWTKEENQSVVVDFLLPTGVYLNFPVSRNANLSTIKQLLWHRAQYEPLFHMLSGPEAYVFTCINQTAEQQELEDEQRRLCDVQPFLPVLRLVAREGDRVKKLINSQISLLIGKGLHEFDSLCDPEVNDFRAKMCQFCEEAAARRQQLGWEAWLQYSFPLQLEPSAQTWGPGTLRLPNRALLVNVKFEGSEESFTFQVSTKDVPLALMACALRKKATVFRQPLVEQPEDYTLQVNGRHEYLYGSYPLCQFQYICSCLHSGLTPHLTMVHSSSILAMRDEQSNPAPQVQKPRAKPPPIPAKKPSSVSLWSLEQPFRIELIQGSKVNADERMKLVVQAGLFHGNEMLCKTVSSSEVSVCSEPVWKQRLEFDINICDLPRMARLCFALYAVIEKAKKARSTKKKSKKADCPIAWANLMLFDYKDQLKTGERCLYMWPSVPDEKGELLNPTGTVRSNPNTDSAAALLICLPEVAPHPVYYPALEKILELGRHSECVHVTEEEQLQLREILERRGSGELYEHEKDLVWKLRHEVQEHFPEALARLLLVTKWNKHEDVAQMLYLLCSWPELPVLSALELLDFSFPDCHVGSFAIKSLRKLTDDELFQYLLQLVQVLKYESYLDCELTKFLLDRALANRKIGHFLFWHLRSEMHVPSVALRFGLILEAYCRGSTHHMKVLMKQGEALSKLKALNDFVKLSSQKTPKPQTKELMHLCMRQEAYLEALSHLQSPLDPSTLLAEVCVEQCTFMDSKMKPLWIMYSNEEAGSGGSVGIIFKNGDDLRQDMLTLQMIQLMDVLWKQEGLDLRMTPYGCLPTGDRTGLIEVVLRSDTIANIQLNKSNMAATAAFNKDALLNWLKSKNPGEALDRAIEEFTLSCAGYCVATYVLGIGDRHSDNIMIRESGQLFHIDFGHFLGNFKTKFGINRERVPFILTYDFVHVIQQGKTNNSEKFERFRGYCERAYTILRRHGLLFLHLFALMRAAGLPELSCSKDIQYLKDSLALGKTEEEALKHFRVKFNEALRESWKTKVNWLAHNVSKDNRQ
T1 sequence (P27986 whole entry partner, species assumed): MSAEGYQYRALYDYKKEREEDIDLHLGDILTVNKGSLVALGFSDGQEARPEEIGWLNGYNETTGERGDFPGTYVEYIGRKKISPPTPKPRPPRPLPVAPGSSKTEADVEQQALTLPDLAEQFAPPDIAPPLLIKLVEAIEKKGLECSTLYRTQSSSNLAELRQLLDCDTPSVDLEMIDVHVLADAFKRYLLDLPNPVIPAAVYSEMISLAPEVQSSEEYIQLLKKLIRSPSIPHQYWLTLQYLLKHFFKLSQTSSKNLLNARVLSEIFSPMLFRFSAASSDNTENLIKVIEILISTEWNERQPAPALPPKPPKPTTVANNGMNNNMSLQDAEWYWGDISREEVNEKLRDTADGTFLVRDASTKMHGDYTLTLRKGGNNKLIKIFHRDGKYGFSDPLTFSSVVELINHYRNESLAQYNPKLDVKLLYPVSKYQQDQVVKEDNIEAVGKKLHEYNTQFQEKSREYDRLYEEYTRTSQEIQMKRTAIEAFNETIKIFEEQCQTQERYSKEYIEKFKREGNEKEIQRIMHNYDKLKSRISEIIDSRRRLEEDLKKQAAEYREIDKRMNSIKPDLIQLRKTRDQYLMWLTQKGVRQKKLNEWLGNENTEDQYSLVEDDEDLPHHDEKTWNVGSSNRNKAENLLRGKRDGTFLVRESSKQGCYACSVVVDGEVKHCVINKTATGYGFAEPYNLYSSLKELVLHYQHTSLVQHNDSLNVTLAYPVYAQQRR

Compound | IC50 (PI3Kδ (p110δ/p85α)) | IC50 [1]
COc1c(C(C)Nc2ncnc3[nH]cnc23)cc(Cl)c(C)c1-c1ccc(F)c(Cl)c1 (centres unmarked) [Example 89, N-[1-(3′,5-dichloro-4′-fluoro-2-methoxy-6-methylbiphenyl-3-yl)ethyl]-9H-purin-6-amine] | 50 to 100 nM | 500 to 1000 nM
COc1c(C(C)Nc2ncnc3[nH]cnc23)cc(Cl)c(C)c1-c1ccc(F)c(C(=O)N(C)C)c1 (centres unmarked) [Example 94, 3′-chloro-4-fluoro-6′-methoxy-N,N,2′-trimethyl-5′-[1-(9H-purin-6-ylamino)ethyl]biphenyl-3-carboxamide] | < 50 nM | < 100 nM
COc1c(C(C)Nc2ncnc3[nH]cnc23)cc(Cl)c(C)c1C1CN(C(C)C)C1 (centres unmarked) [Example 170, N-{1-[5-Chloro-3-(1-isopropylazetidin-3-yl)-2-methoxy-4-methylphenyl]ethyl}-9H-purin-6-amine bis(trifluoroacetate)] | < 50 nM | < 100 nM
COc1c(C(C)Nc2ncnc3[nH]cnc23)cc(Cl)c(C)c1C1CN(C(C)=O)C1 (centres unmarked) [Example 166, N-{1-[3-(1-Acetylazetidin-3-yl)-5-chloro-2-methoxy-4-methylphenyl]ethyl}-9H-purin-6-amine trifluoroacetate] | < 50 nM | < 100 nM

The remaining lines, values ahead:

IC50 (PI3Kδ (p110δ/p85α)) | IC50 [1] | Compound
< 50 nM | < 100 nM | Cc1c(Cl)cc(C(C)Nc2ncnc3[nH]cnc23)c(-c2cc(F)cc(F)c2)c1-c1cc(F)nc(F)c1 (centres unmarked) [Example 80, N-{1-[4-chloro-6-(2,6-difluoropyridin-4-yl)-3′,5′-difluoro-5-methylbiphenyl-2-yl]ethyl}-9H-purin-6-amine]
< 50 nM | 500 to 1000 nM | COc1cc(-c2c(C)c(Cl)cc(C(C)Nc3ncnc4[nH]cnc34)c2OC)ccc1F (centres unmarked) [Example 95, N-[1-(5-chloro-4′-fluoro-2,3′-dimethoxy-6-methylbiphenyl-3-yl)ethyl]-9H-purin-6-amine]
< 50 nM | < 100 nM | COc1c(C(C)Nc2ncnc3[nH]cnc23)cc(Cl)c(C)c1-c1ccc(C(=O)NC2CC2)cc1 (centres unmarked) [Example 31, 3′-chloro-N-cyclopropyl-6′-methoxy-2′-methyl-5′-[1-(9H-purin-6-ylamino)ethyl]biphenyl-4-carboxamide]
